In the NIST ThermoML archive (doi:10.1021/je020140j):

Assay: molar heat capacity at constant pressure; xn = mol fraction of the nth substance listed
Settings: 101 kPa, Liquid, Small sample (50 mg) DSC

OCCO [1,2-ethanediol] + O
molar heat capacity at constant pressure [J/K/mol]
Settings | x1 = 0.0312 | x1 = 0.0676 | x1 = 0.1105 | x1 = 0.162 | x1 = 0.2248 | x1 = 0.3031 | x1 = 0.4036 | x1 = 0.537 | x1 = 0.723 | x1 = 1
293.15 K | 88.03 | 87.6 | 86.7 | 89.39 | 93.61 | 98.37 | 104.66 | 114.3 | 127.9 | 147.47
303.15 K | 87.89 | 87.81 | 87.05 | 89.67 | 94.42 | 99.15 | 105.99 | 115.72 | 129.45 | 149.71
313.15 K | 88.36 | 88.19 | 87.48 | 90.47 | 94.89 | 100.31 | 108.06 | 117.68 | 131.2 | 152
323.15 K | 88.63 | 88.59 | 87.53 | 91 | 95.93 | 101.88 | 109.53 | 119.76 | 133.39 | 153.8
333.15 K | 88.8 | 88.99 | 87.76 | 91.5 | 96.6 | 102.38 | 111 | 121.18 | 135.38 | 156.22
343.15 K | 88.88 | 89.1 | 88.31 | 92.56 | 97.46 | 103.64 | 111.93 | 122.85 | 138.08 | 159.7
353.15 K | 89.15 | 89.47 | 88.97 | 92.31 | 98.61 | 104.99 | 113.83 | 124.97 | 140.57 | 161
363.15 K | 89.25 | 89.6 | 89.27 | 93.51 | 99.61 | 106.52 | 115.04 | 126.81 | 142.17 | 164.98
373.15 K | – | – | 89.52 | 93.89 | 100.23 | 107.47 | 116.01 | 128.22 | 144.36 | 168.45
